Structures are written as SMILES. Entries after “also recorded” stand apart in the source; their conditions may differ.

For data set [1], the target named is T1, HuR protein interaction with the ARE site of Msi1 mRNA (HuR-Msi1^ARE) (Homo sapiens, UniProt Q15717).
T1 construct: full-length human HuR protein was produced by the KU COBRE-PSF Protein Purification Group; made in house
Nature of the data set: Fluorescence polarization (FP) assay, inhibition of HuR-Msi1 ARE interaction. The format is binding. To be noted: full-length human HuR, read-out: Ki via FP assay. An excerpt: A fluorescence polarization (FP)-based binding assay was utilized to assess the inhibition of HuR protein interaction with the ARE site of Msi1 mRNA (“HuR-Msi1^ARE”) by compounds of interest. Briefly, full-length human HuR protein was produced by the KU COBRE-PSF Protein Purification Group and Bcl2, Msi1 and XIAP mRNA sequences (16 nt) were designed based on literature precedent^23,24,31,32. Fluorescein labeled RNAs were purchased from Dharmacon with the following sequences: Msi1 RNA: 5′-GCUUUUAUUUAUUUUG-3′-fluorescein; Bcl-2 RNA: 5′-AAAAGAUUUAUUUAUU-3′-fluorescein; XIAP RNA: 5′-UAGUUAUUUUUA UGUC-3′-fluorescein, and a 16-nt degenerative RNA with 3′-fluorescein label was used as a negative control.

Data set [2] addresses T2, HuR protein bound to Msi1-Bi (Homo sapiens, UniProt Q15717).
T2 construct: endogenous in cells
Nature of the data set: Pull-down assay #1, RNA immunoprecipitation with biotinylated Msi1 ARE oligo. Format: cell-based. To be noted: cytoplasmic lysates of treated cells with HuR overexpression. On the procedure:
Cells with HuR overexpression were treated with compounds, then the cell cytoplasmic lysates were collected using NE-PER Nuclear and Cytoplasmic Extraction Kit (Thermo Scientific), and subsequently to the cell cytoplasmic lysates were added the biotinylated target ARE oligo from Msi1 mRNA (Msi1-Bi). Following this, streptavidin beads were added to pull down HuR protein bound to Msi1-Bi. Compounds of the present technology blocked the HuR pull-down by the biotinylated ARE oligo, illustrating inhibition of the Hur-mRNA interaction. Unlabeled target AREs were used as positive control. FIG. 6A provides results with KH-3, illustrating KH-3 blocked Msi1-Bi RNA mediated pull-down of HuR protein up to 24%.

In data set [3] the test system is PANC-1-Luc orthotopic pancreatic xenografts. In words: Orthotopic pancreatic tumor model (PANC-1-Luc). The format is in vivo, nude mice. How it is done:
All animal procedures were approved by the Institutional Animal Care and Use Committee at the University of Kansas Medical Center under the protocol #2015-2247. Dose of KH-3 was pre-determined by a pilot experiment to be 100 mg/kg body weight, intraperitoneal injection (IP), three times weekly. All treatment in this pancreatic cancer section of the present disclosure concerning KH-3 used this dose regimen.
An orthotopic pancreatic tumor model was used to determine treatment effects of KH-3. Luciferase-expressing PANC-1 cells (PANC-1-Luc, multi-clones) were established by the Preclinical Proof of Concept Core Laboratory (University of Kansas Medical Center, Kansas City, Kans.). A small subcostal laparotomy was performed in female Ncr nu/nu mice to expose the pancreas, and 2×10^5 PANC-1-Luc cells in 50 μL PBS were injected into the tail of pancreas. […]
The in vivo tumor inhibitory effects of KH-3 were tested in a highly metastatic orthotopic model of pancreatic cancer. […] Tumor progression is monitored by weekly imaging using an IVIS Spectrum imaging system (Caliper Life Sciences). […] After 2 weeks, tumor development in the pancreas of the recipient mice was detected by imaging. […] The dose regimen of KH-3 was determined by a pilot dose-finding experiment to be 100 mg/kg, intraperitoneal injection (IP), three times (3×) weekly, which was the highest dose without showing toxicity. […]

Data set [4] has as its system 2LMP subclone of MDA-MB-231, lung metastasis. Nature of the data set: Experimental metastasis model (2LMP, lung metastasis). The format is in vivo, mice. How it is done:
For the experimental metastasis model, Dr. Marc Lippman kindly gifted a 2LMP subclone that was generated from MDA-MB-231 and that formed lung metastasis in mice. 0.5×10^6 2LMP cells stably expressing luciferase in 0.3 mL DMEM were intravenously injected into tail veins of mice. Immediately following injection, mice were imaged by bioluminescence to assure wide distribution and quality of the initial injection. The mice were then randomized into two groups and treated with 50 mg/kg KH-3 or vehicle control via intraperitoneal injection five times per week for five weeks. Bioluminescence imaging was taken weekly to monitor the metastasis burden at lung. […] Imaging was then taken twice a week after first detectable signaling at lung. All animal experiments were carried out according to the protocol approved by the Institutional Animal Use and Care Committee at the University of Kansas.

Another data set has as its system MDA-MB-231. Nature of the data set: Cytotoxicity assay (WST-8). The format is cell-based. To be noted: Homo sapiens, MDA-MB-231, 96 h, read-out: Cytotoxicity (IC50, μM) MDA-MB-231. On the procedure: The cytotoxicity of the tested compounds in several cancer cell lines (HCT116 β/w, MIAPaCa-2, and MDA-MB-231) was determined by a cytotoxicity assay, where the results are provided in Table 1. Cells were seeded in 96-well culture plates (5,000 cells/well) and treated with titrated compounds in triplicate. After 96 h incubation, cell growth medium was removed and proliferation reagent WST-8 (Sigma) was added to each well and incubated at 37° C. for 1-3 h. Absorbance was then measured with a plate reader at 450 nm with correction at 650 nm. The results were expressed as the percentage of absorbance of treated wells versus that of vehicle control. IC50, the drug concentration causing 50% growth inhibition, was calculated via sigmoid curve fitting using GraphPad Prism 5.0. […]
(Tetrazolium assays rely on reduction of a dye to a coloured formazan, in cell work by metabolically active cells.)

[5] abbreviates: 50 mg/kg i.p. five times per week for five weeks.

T1 sequence (Q15717 whole entry): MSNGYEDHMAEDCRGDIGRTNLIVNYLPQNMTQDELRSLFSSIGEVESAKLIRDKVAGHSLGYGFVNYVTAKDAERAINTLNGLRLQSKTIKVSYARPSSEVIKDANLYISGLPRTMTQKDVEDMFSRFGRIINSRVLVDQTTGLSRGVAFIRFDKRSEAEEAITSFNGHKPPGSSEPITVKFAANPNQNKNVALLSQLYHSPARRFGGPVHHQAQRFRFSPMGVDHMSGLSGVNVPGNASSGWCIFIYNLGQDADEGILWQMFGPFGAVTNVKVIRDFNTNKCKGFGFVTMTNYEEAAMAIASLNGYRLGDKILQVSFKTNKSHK
T2 sequence (Q15717 2-326 limits assumed): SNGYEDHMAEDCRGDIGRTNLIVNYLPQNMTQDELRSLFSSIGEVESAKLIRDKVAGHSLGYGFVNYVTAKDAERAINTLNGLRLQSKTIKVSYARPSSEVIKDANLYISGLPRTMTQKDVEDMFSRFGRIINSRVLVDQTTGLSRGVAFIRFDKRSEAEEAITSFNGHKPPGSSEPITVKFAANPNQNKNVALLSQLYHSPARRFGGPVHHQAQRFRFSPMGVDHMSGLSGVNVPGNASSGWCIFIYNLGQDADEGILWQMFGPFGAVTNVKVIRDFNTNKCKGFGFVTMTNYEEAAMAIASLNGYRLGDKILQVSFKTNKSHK

As to `CC(C)(C)c1ccc(S(=O)(=O)Nc2ccc3sc(/C=C/C(=O)NO)cc3c2)cc1` [KH-3], the inhibition constant (Ki) in data set [1] was found to be 810 nM. Further, in data set [2], the “blocking of Msi1-Bi RNA mediated pull-down of HuR protein” value was “up to 24%”. The “mice that developed metastasis (liver)” value in data set [3] (100 mg/kg IP 3× weekly, 5 weeks, 1/10) is on record as 10%. The “highest dose without showing toxicity” value in data set [3] (pilot dose-finding experiment, IP, three times weekly) was found to be 100 mg/kg. In addition, in data set [4] (setting [5]), the median survival time was 81 days, the “median time to initiation of pulmonary metastases” value is 71 days and the side effects entry is reported as “minor diarrhea in some mice; also recorded: Some mice had swollen abdomens starting the fourth week of treatment”. Further, in data set [4] (50 mg/kg i.p. five times per week for five weeks, 7/9), the “metastasis rate (mice with pulmonary metastases at the end of experiment)” value is 77.7%. For the same compound, the weight gain result in data set [4] (first 43 days of the experiment) is “gained weight similar to those in control group”. Further, in the data set on MDA-MB-231, the IC50 is 4.15 µM.

By Ki is commonly meant a measure of affinity in units of concentration, obtained from inhibition or displacement. As usually defined, the IC50 is the concentration that gives 50% inhibition.

Source of the values: patent US20230131501A1, “THERAPEUTIC USES OF INHIBITORS OF THE RNA-BINDING PROTEIN HuR” (University of Kansas, priority 2020, published 2023).
